Counter-ions that a name gives are not always drawn.
Tests used:
Type in all cases: cell-based
[1] = system: MDA-MB-361-DYT2 (breast cancer) cells; experiment: In vitro cell assay (MTS cell viability), MDA-MB-361-DYT2; details: 96 h, free compounds (natural products and synthetic analogs); cell viability 96 hours after treatment
Experimental: (§1) Target expressing (BT474 (breast cancer), N87 (gastric cancer), HCC1954 (breast cancer), MDA-MB-361-DYT2 (breast cancer)) or non-expressing (MDA-MB-468) cells were seeded in 96-well cell culture plates for 24 hours before treatment. Cells were treated with 3-fold serially diluted antibody-drug conjugates or free compounds (i.e., no antibody conjugated to the drug) in duplicate at 10 concentrations. Cell viability was determined by CellTiter 96® AQueous One Solution Cell Proliferation MTS Assay (Promega, Madison Wis.) 96 hours after treatment. Relative cell viability was determined as percentage of untreated control. IC50 values were calculated using a four parameter logistic model #203 with XLfit v4.2 (IDBS, Guildford, Surry, UK). The potency ranged upward from 0.0002 nm. Similar procedures and techniques were employed.

[2] = system: BT474 (breast cancer) cells; experiment: In vitro cell assay (MTS cell viability), BT474; details: Homo sapiens, BT-474; free compounds (natural products and synthetic analogs); cell viability 96 hours after treatment
Experimental: as §1

[3] = system: N87 (gastric cancer) cells; experiment: In vitro cell assay (MTS cell viability), N87; details: 96 h, free compounds (natural products and synthetic analogs); cell viability 96 hours after treatment
Experimental: as §1

Question: How did the IC50 [1] turn out when `CC(=O)O[C@@H](C)/C=C\C(=O)N[C@@H]1C[C@H](C)[C@H](C/C=C(C)/C=C/[C@H]2O[C@H](CC(=O)NCCO)C[C@@]3(CO3)[C@@H]2O)O[C@@H]1C` [#B8, (2S,3Z)-5-{[(2R,3R,5S,6S)-6-{(2E,4E)-5-[(3R,4R,5R,7S)-4-hydroxy-7-{2-[(2-hydroxyethyl)amino]-2-oxoethyl}-1,6-dioxaspiro[2.5]oct-5-yl]-3-methylpenta-2,4-dien-1-yl}-2,5-dimethyltetrahydro-2H-pyran-3-yl]amino}-5-oxopent-3-en-2-yl acetate] was run?
Answer: 25.5 nM

Question: And the IC50 [2]?
Answer: 14.1 nM

Question: And the IC50 [3]?
Answer: 10.7 nM

Question: Which IC50 [1] does the source give for `CC(=O)O[C@@H](C)/C=C\C(=O)N[C@@H]1C[C@H](C)[C@H](C/C=C(C)/C=C/[C@H]2O[C@H](CC(N)=O)C[C@@]3(CO3)[C@@H]2O)O[C@@H]1C` [#B9, (2S,3Z)-5-{[(2R,3R,5S,6S)-6-{(2E,4E)-5-[(3R,4R,5R,7S)-7-(2-amino-2-oxoethyl)-4-hydroxy-1,6-dioxaspiro[2.5]oct-5-yl]-3-methylpenta-2,4-dien-1-yl}-2,5-dimethyltetrahydro-2H-pyran-3-yl]amino}-5-oxopent-3-en-2-yl acetate] here?
Answer: 5.26 nM

Question: And the IC50 [2]?
Answer: 3.26 nM

Question: And the IC50 [3]?
Answer: 1.34 nM

Question: Which results are given for `CC(=O)O[C@@H](C)/C=C\C(=O)N[C@@H]1C[C@H](C)[C@H](C/C=C(C)/C=C/[C@H]2O[C@H](CC(=O)NCc3ccc(S(N)(=O)=O)cc3)C[C@@]3(CO3)[C@@H]2O)O[C@@H]1C` [#B10, (2S,3Z)-5-{[(2R,3R,5S,6S)-6-{(2E,4E)-5-[(3R,4R,5R,7S)-4-hydroxy-7-{2-oxo-2-[(4-sulfamoylbenzyl)amino]ethyl}-1,6-dioxaspiro[2.5]oct-5-yl]-3-methylpenta-2,4-dien-1-yl}-2,5-dimethyltetrahydro-2H-pyran-3-yl]amino}-5-oxopent-3-en-2-yl acetate]?
Answer: IC50 [1]: 77.5 nM; IC50 [2]: 43.5 nM; IC50 [3]: 12.1 nM

Question: With `CC(=O)O[C@@H](C)/C=C\C(=O)N[C@@H]1C[C@H](C)[C@H](C/C=C(C)/C=C/[C@H]2O[C@H](CC(=O)NCc3ccc(N)cc3)C[C@@]3(CO3)[C@@H]2O)O[C@@H]1C` [#B11, (2S,3Z)-5-{[(2R,3R,5S,6S)-6-{(2E,4E)-5-[(3R,4R,5R,7S)-7-{2-[(4-aminobenzyl)amino]-2-oxoethyl}-4-hydroxy-1,6-dioxaspiro[2.5]oct-5-yl]-3-methylpenta-2,4-dien-1-yl}-2,5-dimethyltetrahydro-2H-pyran-3-yl]amino}-5-oxopent-3-en-2-yl acetate] as the compound, how does the IC50 [1] read?
Answer: 6.71 nM

Question: What about the IC50 [2] of the same compound?
Answer: 3.42 nM

Question: What about the IC50 [3] of the same compound?
Answer: 1.61 nM

Question: What does the source list for `CC(=O)O[C@@H](C)/C=C\C(=O)N[C@@H]1C[C@H](C)[C@H](C/C=C(C)/C=C/[C@H]2O[C@H](CC(=O)N3CCNCC3)C[C@@]3(CO3)[C@@H]2O)O[C@@H]1C` [#B12, (2S,3Z)-5-({(2R,3R,5S,6S)-6-[(2E,4E)-5-{(3R,4R,5R,7S)-4-hydroxy-7-[2-oxo-2-(piperazin-1-yl)ethyl]-1,6-dioxaspiro[2.5]oct-5-yl}-3-methylpenta-2,4-dien-1-yl]-2,5-dimethyltetrahydro-2H-pyran-3-yl}amino)-5-oxopent-3-en-2-yl acetate, acetate salt]?
Answer: IC50 [1]: 87.8 nM; IC50 [2]: 55.5 nM; IC50 [3]: 54.6 nM

Question: Which results are given for `CC(=O)O[C@@H](C)/C=C\C(=O)N[C@@H]1C[C@H](C)[C@H](C/C=C(C)/C=C/[C@H]2O[C@H](CC(=O)N3CCN(C)CC3)C[C@@]3(CO3)[C@@H]2O)O[C@@H]1C` [#B13, (2S,3Z)-5-({(2R,3R,5S,6S)-6-[(2E,4E)-5-{(3R,4R,5R,7S)-4-hydroxy-7-[2-(4-methylpiperazin-1-yl)-2-oxoethyl]-1,6-dioxaspiro[2.5]oct-5-yl}-3-methylpenta-2,4-dien-1-yl]-2,5-dimethyltetrahydro-2H-pyran-3-yl}amino)-5-oxopent-3-en-2-yl acetate, acetate salt]?
Answer: IC50 [1]: 1.93 nM; IC50 [2]: 0.68 nM; IC50 [3]: 0.99 nM
